Data from US12503475B2 (Centessa Pharmaceuticals (UK) Limited, priority 2020, dated 2025).
Where “and” joins values, the source holds several entries; their conditions need not be identical. Identical values can stand only once. Like-named read-outs stand apart in the source and are kept apart here.

Molecular target: T1, human orexin type 2 receptor (hOX2R) (Homo sapiens, UniProt O43614)
T1 construct: expressed in transfected cells
T1 sequence (O43614 1-444): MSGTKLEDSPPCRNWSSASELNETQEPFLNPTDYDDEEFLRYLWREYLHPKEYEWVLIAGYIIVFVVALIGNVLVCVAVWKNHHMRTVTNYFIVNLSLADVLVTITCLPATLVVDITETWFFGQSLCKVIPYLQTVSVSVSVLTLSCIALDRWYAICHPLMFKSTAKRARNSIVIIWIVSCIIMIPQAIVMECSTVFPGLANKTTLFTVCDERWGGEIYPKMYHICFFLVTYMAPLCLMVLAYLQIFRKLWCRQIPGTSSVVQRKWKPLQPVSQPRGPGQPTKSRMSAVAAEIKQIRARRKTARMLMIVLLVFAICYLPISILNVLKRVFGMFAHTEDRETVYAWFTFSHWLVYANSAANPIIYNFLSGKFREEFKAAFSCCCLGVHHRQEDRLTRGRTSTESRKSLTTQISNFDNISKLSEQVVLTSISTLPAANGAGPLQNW
Assay: Measurement of orexin type 2 receptor agonist activity (FLIPR calcium fluorescence)
Format: cell-based
Details: for EC50: read-out: hOx2 pEC50 (converted); for Emax: CHO, read-out: hOx2 Emax (%)
Procedure, shortened: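 Agonism was read as fluorescence in cells stably expressing human OX2R. E. is the response at 10 μM relative to orexin A as full agonist (100%).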

[1] = CHO cells expressing hOX2R, FLIPR calcium fluorescence

| Molecule | EC50 [1] | Emax [1] [%] | hOx2 Emax (%) [1] | hOx2 pEC50 [1] | Emax [%] |
| --- | --- | --- | --- | --- | --- |
| C[C@@H](NC(=O)N1CC2(CC2)[C@H](NS(=O)(=O)CF)[C@@H]1Cc1cccc(-c2ccccc2)c1F)C(F)(F)F [Compound 209, (6S,7S)-6-((2-fluoro-[1,1′-biphenyl]-3-yl)methyl)-7-((fluoromethyl)sulfonamido)-N-((R)-1,1,1-trifluoropropan-2-yl)-5-azaspiro[2.4]heptane-5-carboxamide] | 0.0794 to 1 nM | 90 to 100 |  |  |  |
| O=C([C@H](O)C(F)F)N1CC2(CC2)[C@H](NS(=O)(=O)CF)[C@@H]1Cc1cc(F)cc(-c2ccccc2)c1F [Compound 360, N-((6S,7S)-5-((S)-3,3-difluoro-2-hydroxypropanoyl)-6-((2,5-difluoro-[1,1′-biphenyl]-3-yl)methyl)-5-azaspiro[2.4]heptan-7-yl)-1-fluoromethanesulfonamide] | 1 to 10 nM | 90 to 100 |  |  |  |
| COC1(C(=O)N2CC3(CC3)[C@H](NS(C)(=O)=O)[C@@H]2Cc2cccc(-c3ccccc3)c2)CC1 [Compound 60, N-((6S,7S)-6-([1,1′-biphenyl]-3-ylmethyl)-5-(1-methoxycyclopropane-1-carbonyl)-5-azaspiro[2.4]heptan-7-yl)methanesulfonamide] | 10 to 100 nM | 80 to 90 |  |  |  |
| CS(=O)(=O)N[C@@H]1[C@H](Cc2cccc(-c3cccc(F)c3)c2F)N(C(=O)N2CCC2)CC12CC2 [Compound 27, N-((6S,7S)-5-(azetidine-1-carbonyl)-6-((2,3′-difluoro-[1,1′-biphenyl]-3-yl)methyl)-5-azaspiro[2.4]heptan-7-yl)methanesulfonamide] | 1 to 10 nM and 0.0794 to 1 nM | 90 to 100 |  |  |  |
| CS(=O)(=O)N[C@@H]1[C@H](Cc2cc(F)cc(-c3ccccc3)c2F)N(C(=O)[C@H]2CCO2)CC12CC2 [Compound 59, N-((6S,7S)-6-((2,5-difluoro-[1,1′-biphenyl]-3-yl)methyl)-5-((R)-oxetane-2-carbonyl)-5-azaspiro[2.4]heptan-7-yl)methanesulfonamide] | 1 to 10 nM | 90 to 100 |  |  |  |
| (6S,7S)-6-(2,5-difluoro-[1,1′- biphenyl]-3-yl)methyl)-7- ((difluoromethyl)sulfonamido)- N-((S)-1-fluoroethyl)-5- azaspiro[2.4]heptane-5- carboxamide [Compound 216] |  |  | A (Emax ranging between 90 and 100) | **** (pEC50 ranging between 8.0 and 9.0) |  |
| CN(C)S(=O)(=O)N[C@@H]1[C@H](Cc2cccc(-c3ccccc3)c2F)N(C(=O)N2CCC2)CC12CC2 [Compound 116, N-((6S,7S)-5-(azetidine-1-carbonyl)-6-((2-fluoro-[1,1′-biphenyl]-3-yl)methyl)-5-azaspiro[2.4]heptan-7-yl)-N,N-dimethylsulfuric diamide] | 0.0794 to 1 nM |  |  |  | 90 to 100 |
| CS(=O)(=O)N[C@@H]1[C@H](Cc2cccc(-c3ccccc3)c2F)N(C(=O)NCCCF)CC12CC2 [Compound 79, (6S,7S)-6-((2-fluoro-[1,1′-biphenyl]-3-yl)methyl)-N-(3-fluoropropyl)-7-(methylsulfonamido)-5-azaspiro[2.4]heptane-5-carboxamide] | 1 to 10 nM | 90 to 100 |  |  |  |
| O=C([C@H]1CCO1)N1CC2(CC2)[C@H](NS(=O)(=O)C(F)F)[C@@H]1Cc1cccc(-c2cc(F)ccc2F)c1F [Compound 171, 1,1-difluoro-N-((6S,7S)-5-((R)-oxetane-2-carbonyl)-6-((2,2′,5′-trifluoro-[1,1′-biphenyl]-3-yl)methyl)-5-azaspiro[2A]heptan-7-yl)methanesulfonamide] | 1 to 10 nM | 90 to 100 |  |  |  |
| O=C([C@H]1CCCO1)N1CC2(CC2)[C@H](NS(=O)(=O)CF)[C@@H]1Cc1cccc(-c2ccccc2)c1F [Compound 401, 1-fluoro-N-((6S,7S)-6-((2-fluoro-[1,1′-biphenyl]-3-yl)methyl)-5-((R)-tetrahydrofuran-2-carbonyl)-5-azaspiro[2.4]heptan-7-yl)methanesulfonamide] | 1 to 10 nM | 90 to 100 |  |  |  |
